Results from patent US20260070945A1, “MACROCYCLIC IMMUNOMODULATORS” (Bristol-Myers Squibb Company, priority 2022, published 2026).
*1 amine or outer side, *2 acyl side, *3 side chain or, on linkers, in order; H or OH if unused. Where a SMILES comes first, the peptide text is derived from it. Bridges are numbered along the chain shown (N, C = ends). [ ]: non-standard residue; d: D form. The star is where a group is joined. ξ: configuration not given here. Phe(3-CF3) = N[C@@H](Cc1cccc(C(F)(F)F)c1)C(=O)O; Phe(4-COOH) = N[C@@H](Cc1ccc(C(=O)O)cc1)C(=O)O; Bip = N[C@@H](Cc1ccc(-c2ccccc2)cc1)C(=O)O; γGlu = O=C(O)[C@H](CCC(=O)[*:2])N[*:1]; Abu(3S-NH2) = C[C@H](N)[C@H](N)C(=O)O; NH(CH2)12COOH = O=C(O)CCCCCCCCCCCCN*; Val(3-OH) = CC(C)(O)[C@H](N)C(=O)O; 4Pal = N[C@@H](Cc1ccncc1)C(=O)O; X1 = O=C(CN1CCN([*:1])CC1)[*:2]; Cha = N[C@@H](CC1CCCCC1)C(=O)O; Cit = NC(=O)NCCC[C@H](N)C(=O)O; Thr(3ξ) = CC(O)[C@H](N)C(=O)O; 3Abz = Nc1cccc(C(=O)O)c1; 4Abz = Nc1ccc(C(=O)O)cc1; Carboxymethyl = O=C(O)C*; NMeA = CN[C@@H](C)C(=O)O; Orn = NCCC[C@H](N)C(=O)O; Aun = NCCCCCCCCCCC(=O)O; Dab = NCC[C@H](N)C(=O)O; Dap = NC[C@H](N)C(=O)O; AEEA = NCCOCCOCC(=O)O

These compounds were tested against T1, PD-1/PD-L1 interaction (PE-labeled human PD-L1-Ig binding to Jurkat cell line over-expressing human PD-1) (Homo sapiens, UniProt Q15116) (assay: Jurkat-PD-1 Cell Binding High-Content Screening Assay (CBA)). Details: Jurkat-hPD-1 cells, PE-labeled PD-L1-Ig 20 nM final; read-out: Jurkat HPD1 PDL1 IC50.
T1 construct: expressed in transfected cells; host or cells: Jurkat
T1 sequence (Q15116 25-288): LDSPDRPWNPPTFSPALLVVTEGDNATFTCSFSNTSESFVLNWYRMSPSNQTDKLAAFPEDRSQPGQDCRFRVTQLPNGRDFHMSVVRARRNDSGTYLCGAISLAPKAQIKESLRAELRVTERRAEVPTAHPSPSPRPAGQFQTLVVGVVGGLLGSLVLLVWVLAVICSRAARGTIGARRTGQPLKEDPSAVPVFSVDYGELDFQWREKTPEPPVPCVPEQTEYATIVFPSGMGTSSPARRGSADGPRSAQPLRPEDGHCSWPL
Outline: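 High-content imaging read-out of PE-PD-L1-Ig binding (20 nM final, 1 h) to Jurkat-hPD-1 cells, after 2 h compound exposure at 37 °C in DMEM with 10% FCS. Nuclei counterstained with Hoechst 33342 after paraformaldehyde fixation.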

| SMILES | IC50 [µM] |
| --- | --- |
| CC(C)C[C@H]1NC(=O)[C@H](C)N(C)C(=O)[C@H](CCC(N)=O)NC(=O)[C@H](Cc2ccc(-c3ccccc3)cc2)NC(=O)[C@H](Cc2ccc(C(=O)O)cc2)NC(=O)[C@H](Cc2cccc(C(F)(F)F)c2)NC(=O)[C@H](CC(=O)O)NC(=O)[C@H](Cc2ccc(OCC(=O)O)cc2)NC(=O)[C@H]([C@H](C)N)NC(=O)CSC[C@@H](C(=O)N[C@@H](CCN)C(=O)NCCOCCOCC(=O)N[C@@H](CCC(=O)NCCOCCOCC(=O)NCCCCCCCCCCCCC(=O)O)C(=O)O)NC(=O)[C@H](Cc2c[nH]cn2)NC(=O)[C@H](C(C)(C)O)NC(=O)[C@H](CC2CCCCC2)NC(=O)[C@H](CCN)NC1=O [Example 1203] ({CH2CO}-[Abu(3S-NH2)]Y(Carboxymethyl)D[Phe(3-CF3)][Phe(4-COOH)][Bip]Q[NMeA][dL][Dab][Cha][Val(3-OH)]HC[Dab][AEEA][γGlu][AEEA]-{NH(CH2)12COOH}; thioether N-14) | 0.0215 |
| CC(C)C[C@H]1NC(=O)[C@H](C)N(C)C(=O)[C@H](CCCNC(N)=O)NC(=O)[C@H](Cc2ccc(-c3ccccc3)cc2)NC(=O)[C@H](Cc2ccc(C(=O)O)cc2)NC(=O)[C@H](Cc2cccc(C(F)(F)F)c2)NC(=O)[C@H](CC(=O)O)NC(=O)[C@H](Cc2ccc(OCC(=O)O)cc2)NC(=O)[C@H]([C@H](C)N)NC(=O)CSC[C@@H](C(=O)N[C@@H](CCN)C(=O)NCCOCCOCC(=O)N[C@@H](CCC(=O)NCCOCCOCC(=O)NCCCCCCCCCCCCC(=O)O)C(=O)O)NC(=O)[C@H](CO)NC(=O)[C@H](C(C)(C)O)NC(=O)[C@H](CC2CCCCC2)NC(=O)[C@H](CCN)NC1=O [Example 1205] ({CH2CO}-[Abu(3S-NH2)]Y(Carboxymethyl)D[Phe(3-CF3)][Phe(4-COOH)][Bip][Cit][NMeA][dL][Dab][Cha][Val(3-OH)]SC[Dab][AEEA][γGlu][AEEA]-{NH(CH2)12COOH}; thioether N-14) | 0.0247 |
| CC(=O)NCCCC[C@@H]1NC(=O)[C@H](C(C)(C)O)NC(=O)[C@H](CC2CCCCC2)NC(=O)[C@H](CCN)NC(=O)[C@@H](CC(C)C)NC(=O)[C@H](C)N(C)C(=O)[C@H](CCCNC(N)=O)NC(=O)[C@H](Cc2ccc(-c3ccccc3)cc2)NC(=O)[C@H](Cc2ccc(C(=O)O)cc2)NC(=O)[C@H](Cc2cccc(C(F)(F)F)c2)NC(=O)[C@H](CC(=O)O)NC(=O)[C@H](Cc2ccc(OCC(=O)O)cc2)NC(=O)[C@H]([C@H](C)N)NC(=O)CSC[C@@H](C(=O)N[C@@H](CCN)C(=O)NCCOCCOCC(=O)N[C@@H](CCC(=O)NCCOCCOCC(=O)NCCCCCCCCCCCCC(=O)O)C(=O)O)NC1=O [Example 1206] ({CH2CO}-[Abu(3S-NH2)]Y(Carboxymethyl)D[Phe(3-CF3)][Phe(4-COOH)][Bip][Cit][NMeA][dL][Dab][Cha][Val(3-OH)]K(Ac)C[Dab][AEEA][γGlu][AEEA]-{NH(CH2)12COOH}; thioether N-14) | 0.0069 |
| CC(C)C[C@@H]1NC(=O)[C@H](Cc2c[nH]c3ccccc23)NC(=O)[C@H](CC(=O)O)NC(=O)[C@H](Cc2ccncc2)NC(=O)[C@H](Cc2ccc(OCC(=O)O)cc2)NC(=O)CSC[C@@H](C(=O)N[C@@H](CCN)C(=O)NCCCCCCCCCCC(=O)O)NC(=O)[C@H](CCCN)NC(=O)[C@H](C(C)C)NC(=O)[C@H](CC2CCCCC2)NC(=O)[C@H](CCN)NC(=O)[C@@H](CC(C)C)NC(=O)[C@H](C)N(C)C(=O)[C@H](C(C)C)NC(=O)[C@H](Cc2ccc(-c3ccccc3)cc2)NC1=O [Example 1210] ({CH2CO}-Y(Carboxymethyl)[4Pal]DWL[Bip]V[NMeA][dL][Dab][Cha]V[Orn]C[Dab][Aun]-OH; thioether N-14) | 0.0094 |
| CC(C)C[C@@H]1NC(=O)[C@H](Cc2c[nH]c3ccccc23)NC(=O)[C@H](CC(=O)O)NC(=O)[C@H](Cc2ccncc2)NC(=O)[C@H](Cc2ccc(OCC(=O)O)cc2)NC(=O)CSC[C@@H](C(=O)Nc2ccc(C(=O)NCCCCCCCCCCC(=O)O)cc2)NC(=O)[C@H](CN)NC(=O)[C@H](C(C)C)NC(=O)[C@H](CC2CCCCC2)NC(=O)[C@H](CCN)NC(=O)[C@@H](CC(C)C)NC(=O)[C@H](C)N(C)C(=O)[C@H](C(C)C)NC(=O)[C@H](Cc2ccc(-c3ccccc3)cc2)NC1=O [Example 1211] ({CH2CO}-Y(Carboxymethyl)[4Pal]DWL[Bip]V[NMeA][dL][Dab][Cha]V[Dap]C[4Abz][Aun]-OH; thioether N-14) | 0.368 |
| CC(C)C[C@@H]1NC(=O)[C@H](Cc2c[nH]c3ccccc23)NC(=O)[C@H](CC(=O)O)NC(=O)[C@H](Cc2ccncc2)NC(=O)[C@H](Cc2ccc(OCC(=O)O)cc2)NC(=O)CSC[C@@H](C(=O)Nc2ccc(C(=O)NCCCCCCCCCCC(=O)O)cc2)NC(=O)[C@H](CCN)NC(=O)[C@H](C(C)C)NC(=O)[C@H](CC2CCCCC2)NC(=O)[C@H](CCN)NC(=O)[C@@H](CC(C)C)NC(=O)[C@H](C)N(C)C(=O)[C@H](C(C)C)NC(=O)[C@H](Cc2ccc(-c3ccccc3)cc2)NC1=O [Example 1212] ({CH2CO}-Y(Carboxymethyl)[4Pal]DWL[Bip]V[NMeA][dL][Dab][Cha]V[Dab]C[4Abz][Aun]-OH; thioether N-14) | 0.301 |
| CC(C)C[C@@H]1NC(=O)[C@H](Cc2c[nH]c3ccccc23)NC(=O)[C@H](CC(=O)O)NC(=O)[C@H](Cc2ccncc2)NC(=O)[C@H](Cc2ccc(OCC(=O)O)cc2)NC(=O)CSC[C@@H](C(=O)Nc2ccc(C(=O)NCCCCCCCCCCC(=O)O)cc2)NC(=O)[C@H](CCCN)NC(=O)[C@H](C(C)C)NC(=O)[C@H](CC2CCCCC2)NC(=O)[C@H](CCN)NC(=O)[C@@H](CC(C)C)NC(=O)[C@H](C)N(C)C(=O)[C@H](C(C)C)NC(=O)[C@H](Cc2ccc(-c3ccccc3)cc2)NC1=O [Example 1213] ({CH2CO}-Y(Carboxymethyl)[4Pal]DWL[Bip]V[NMeA][dL][Dab][Cha]V[Orn]C[4Abz][Aun]-OH; thioether N-14) | 0.276 |
| CC(C)C[C@@H]1NC(=O)[C@H](Cc2c[nH]c3ccccc23)NC(=O)[C@H](CC(=O)O)NC(=O)[C@H](Cc2ccncc2)NC(=O)[C@H](Cc2ccc(OCC(=O)O)cc2)NC(=O)CSC[C@@H](C(=O)Nc2ccc(C(=O)NCCCCCCCCCCC(=O)O)cc2)NC(=O)[C@H](CCCNC(=N)N)NC(=O)[C@H](C(C)C)NC(=O)[C@H](CC2CCCCC2)NC(=O)[C@H](CCN)NC(=O)[C@@H](CC(C)C)NC(=O)[C@H](C)N(C)C(=O)[C@H](C(C)C)NC(=O)[C@H](Cc2ccc(-c3ccccc3)cc2)NC1=O [Example 1214] ({CH2CO}-Y(Carboxymethyl)[4Pal]DWL[Bip]V[NMeA][dL][Dab][Cha]VRC[4Abz][Aun]-OH; thioether N-14) | 0.0772 |
| CC(C)C[C@@H]1NC(=O)[C@H](Cc2c[nH]c3ccccc23)NC(=O)[C@H](CC(=O)O)NC(=O)[C@H](Cc2ccc(C(=O)O)cc2)NC(=O)[C@H](Cc2ccc(OCC(=O)O)cc2)NC(=O)CSC[C@@H](C(=O)N[C@@H](CCCN)C(=O)NCCOCCOCC(=O)NCCCCCCCCCCC(N)=O)NC(=O)[C@H](CCCNC(N)=O)NC(=O)[C@H](C(C)C)NC(=O)[C@H](CC2CCCCC2)NC(=O)[C@H](CCN)NC(=O)[C@@H](CC(C)C)NC(=O)[C@H](C)N(C)C(=O)[C@H](C(C)C)NC(=O)[C@H](Cc2ccc(-c3ccccc3)cc2)NC1=O [Example 1215] ({CH2CO}-Y(Carboxymethyl)[Phe(4-COOH)]DWL[Bip]V[NMeA][dL][Dab][Cha]V[Cit]C[Orn][AEEA][Aun]-NH2; thioether N-14) | 0.0108 |
| CC(C)C[C@@H]1NC(=O)[C@H](Cc2c[nH]c3ccccc23)NC(=O)[C@H](CC(=O)O)NC(=O)[C@H](Cc2ccncc2)NC(=O)[C@H](Cc2ccc(OCC(=O)O)cc2)NC(=O)CSC[C@@H](C(=O)Nc2cccc(C(=O)NCCCCCCCCCCC(=O)O)c2)NC(=O)[C@H](CN)NC(=O)[C@H](C(C)C)NC(=O)[C@H](CC2CCCCC2)NC(=O)[C@H](CCN)NC(=O)[C@@H](CC(C)C)NC(=O)[C@H](C)N(C)C(=O)[C@H](C(C)C)NC(=O)[C@H](Cc2ccc(-c3ccccc3)cc2)NC1=O [Example 1216] ({CH2CO}-Y(Carboxymethyl)[4Pal]DWL[Bip]V[NMeA][dL][Dab][Cha]V[Dap]C[3Abz][Aun]-OH; thioether N-14) | 0.265 |
| CC(C)C[C@@H]1NC(=O)[C@H](Cc2c[nH]c3ccccc23)NC(=O)[C@H](CC(=O)O)NC(=O)[C@H](Cc2ccncc2)NC(=O)[C@H](Cc2ccc(OCC(=O)O)cc2)NC(=O)CSC[C@@H](C(=O)Nc2cccc(C(=O)NCCCCCCCCCCC(=O)O)c2)NC(=O)[C@H](CCN)NC(=O)[C@H](C(C)C)NC(=O)[C@H](CC2CCCCC2)NC(=O)[C@H](CCN)NC(=O)[C@@H](CC(C)C)NC(=O)[C@H](C)N(C)C(=O)[C@H](C(C)C)NC(=O)[C@H](Cc2ccc(-c3ccccc3)cc2)NC1=O [Example 1217] ({CH2CO}-Y(Carboxymethyl)[4Pal]DWL[Bip]V[NMeA][dL][Dab][Cha]V[Dab]C[3Abz][Aun]-OH; thioether N-14) | 0.238 |
| CC(C)C[C@@H]1NC(=O)[C@H](Cc2c[nH]c3ccccc23)NC(=O)[C@H](CC(=O)O)NC(=O)[C@H](Cc2ccncc2)NC(=O)[C@H](Cc2ccc(OCC(=O)O)cc2)NC(=O)CSC[C@@H](C(=O)N2CCN(CC(=O)NCCCCCCCCCCC(=O)O)CC2)NC(=O)[C@H](C(C)O)NC(=O)[C@H](C(C)C)NC(=O)[C@H](CC2CCCCC2)NC(=O)[C@H](CCN)NC(=O)[C@@H](CC(C)C)NC(=O)[C@H](C)N(C)C(=O)[C@H](C(C)C)NC(=O)[C@H](Cc2ccc(-c3ccccc3)cc2)NC1=O (stereo partly drawn) [Example 1219] ({CH2CO}-Y(Carboxymethyl)[4Pal]DWL[Bip]V[NMeA][dL][Dab][Cha]V[Thr(3ξ)]C[X1][Aun]-OH; thioether N-14) | 0.202 |
| CC(C)C[C@@H]1NC(=O)[C@H](Cc2c[nH]c3ccccc23)NC(=O)[C@H](CC(=O)O)NC(=O)[C@H](Cc2ccncc2)NC(=O)[C@H](Cc2ccc(OCC(=O)O)cc2)NC(=O)CSC[C@@H](C(=O)N2CCN(CC(=O)NCCCCCCCCCCC(=O)O)CC2)NC(=O)[C@H](CCCNC(N)=O)NC(=O)[C@H](C(C)C)NC(=O)[C@H](CC2CCCCC2)NC(=O)[C@H](CCN)NC(=O)[C@@H](CC(C)C)NC(=O)[C@H](C)N(C)C(=O)[C@H](C(C)C)NC(=O)[C@H](Cc2ccc(-c3ccccc3)cc2)NC1=O [Example 1220] ({CH2CO}-Y(Carboxymethyl)[4Pal]DWL[Bip]V[NMeA][dL][Dab][Cha]V[Cit]C[X1][Aun]-OH; thioether N-14) | 0.182 |
